Reference: patent publication US20090192227A1, “N-Acetylcysteine Compositions and Methods for Treating Acute Exacerbations of Inflammatory Lung Disease” (priority 2005, published 2009)
Entries after “also recorded” stand apart in the source; their conditions may differ.

Key:
[1] = doses less than NAC; effects counter to those reported for NAC; cited from earlier work
interleukin-17 (IL-17) = experiment: Phase 2 trial: plasma levels of interleukin-17 (IL-17); type: in vivo, human; settings: NAC group compared to placebo group, P=0.02
Excerpt: During week 0 through week12, exacerbations of sinus/lung disease affected 9/18 subjects. Subjects were less prone to exacerbations in the NAC than in the placebo group (2/9 vs. 7/9, respectively, P=0.04, Fisher's exact test). A key molecular correlate of exacerbations, namely plasma levels of the cytokine interleukin-17 (IL-17) also was decreased in the NAC group compared to the placebo-group (P=0.02), further confirming the anti-inflammatory effect of NAC in CF and corroborating its positive effect on acute attacks. IL-17 recently has been identified as a potent T-cell derived modulator of acute neutrophilic lung inflammation [Linden, A., et al. Neutrophils, interleukin-17A and lung disease. Eur. Respir. J. 25:159-172 (2008)]

[2] = test system: human neutrophil elastase (HNE); experiment: Phase 2 trial: sputum HNE protein levels; type: in vivo
Excerpt: (§1) Summary. Based on the success of the phase I trial, the trial proceeded to phase II. This single-center trial consisted of a 12-week placebo-controlled section followed by a 12-week open label section, with oral NAC 0.9 g, taken three times daily. The statistical plan for the study was designed to assess the safety and efficacy of NAC versus placebo, at 0 week and 12-week timepoints (placebo-controlled section). Of the 24 subjects screened for eligibility, 21 were enrolled and randomized into NAC and placebo groups. One subject asked to be withdrawn from the prior to the 6 week time point because the medication regimen was too onerous. […] Two other subjects also were removed from participation in the study by the principal investigator due to poor adherence to the study protocol. […] Thus, 18 subjects are included in this intent-to-treat (ITT) analysis (9 on NAC and 9 on placebo).
(§2) Intention-to-treat analysis of efficacy endpoints. Besides the necessary assessment of the safety of high-dose oral NAC in a placebo-controlled setting, this phase 2 trial also was designed to gain a better understanding of treatment efficacy with regards to improving inflammation, redox imbalance and lung function in CF, albeit within the limits inherent to a small study. […] The primary efficacy endpoint in this phase 2 study is sputum neutrophil count (based on the quantification of live neutrophils by microscopy, reflecting lung inflammation) and the four secondary efficacy endpoints are: (i) FEV1 (% Pred), reflecting lung function; (ii) blood neutrophil GSH, reflecting systemic redox imbalance; (iii) sputum HNE activity, reflecting lung inflammation, the current best predictor of CF lung disease; and (iv) whole blood GSH, reflecting systemic redox imbalance. […]
(§3) These various markers of inflammation were measured independently with different methodologies (e.g., microscopy, kinetic spectrophotometry, enzyme-linked immunosorbent assay), the results of which further strengthen the significance of these positive outcomes. […]

[3] = systematic review of randomized controlled trials; cited from earlier work
[4] = Phase 2 trial: exacerbations of sinus/lung disease, week 0 through week 12; type: in vivo, human; settings: NAC group, placebo 7/9, P=0.04
Excerpt: as §1
During week 0 through week12, exacerbations of sinus/lung disease affected 9/18 subjects. Subjects were less prone to exacerbations in the NAC than in the placebo group (2/9 vs. 7/9, respectively, P=0.04, Fisher's exact test). […]

[5] = Phase I trial: perceived weight gain by CF QOL questionnaire; type: in vivo, human; settings: 4 weeks
Excerpt: (§4) With regards to efficacy, very significant positive effects of the treatment were documented. These positive effects (Table 2) included amelioration of: 1—Whole blood GSH (+11%, P=0.03), as measured by HPLC and blood neutrophil GSH (+17%, P=0.03), as measured by flow cytometry; 2—Live sputum leukocyte (−21%, P=0.03) and neutrophil (−25%, P=0.02) counts, as measured by microscopy and sputum elastase activity (−44%, P=0.02), as measured by kinetic spectrophotometry; and 3—Perceived weight gain (P=0.01), as measured by the CF QOL
Any sizeable change in lung function will likely require longer treatment and larger group size, which we look forward to implementing in the placebo-controlled phase of the study.

[6] = Phase 2 trial: FEV1 (% Pred), lung function; type: in vivo, human
Excerpt: as §1
Intention-to-treat analysis of efficacy endpoints. Besides the necessary assessment of the safety of high-dose oral NAC in a placebo-controlled setting, this phase 2 trial also was designed to gain a better understanding of treatment efficacy with regards to improving inflammation, redox imbalance and lung function in CF, albeit within the limits inherent to a small study. In particular, the study looked to confirm the positive effects of high-dose oral NAC seen on sputum neutrophil count and HNE activity obtained in phase 1. The primary efficacy endpoint in this phase 2 study is sputum neutrophil count (based on the quantification of live neutrophils by microscopy, reflecting lung inflammation) and the four secondary efficacy endpoints are: (i) FEV1 (% Pred), reflecting lung function; (ii) blood neutrophil GSH, reflecting systemic redox imbalance; (iii) sputum HNE activity, reflecting lung inflammation, the current best predictor of CF lung disease; and (iv) whole blood GSH, reflecting systemic redox imbalance. Data on all other main efficacy endpoints (along with sputum HNE and IL-8 protein levels as additional indicators of inflammation) is presented in Table 3 (below) for all 9 subjects of the NAC group and 9 subjects in the placebo group included in the ITT analysis.

[7] = Phase 2 placebo-controlled CF trial: safety, adverse events, adherence, CF QOL; type: in vivo, human
Excerpt: Summary. […] This single-center trial consisted of a 12-week placebo-controlled section followed by a 12-week open label section, with oral NAC 0.9 g, taken three times daily. The statistical plan for the study was designed to assess the safety and efficacy of NAC versus placebo, at 0 week and 12-week timepoints (placebo-controlled section).
Serious adverse events and adverse events. […] As used herein, the term “DIOS”, which stands for “Distal Intestinal Obstruction Syndrome” refers to a condition unique to CF that occurs due to the accumulation of viscous mucous and fecal material in the terminal ileum, caecum and ascending colon, which may cause progressive symptoms of recurrent colicky abdominal pain, bloating, nausea and anorexia, and signs of small intestinal obstruction.

[8] = Phase I trial: lung function by spirometry; type: in vivo, human; settings: short-term treatment (4 weeks)
Excerpt: 3. Lung function, as measured by spirometry. Differences between basal and post-NAC values were studied by matched pair analysis, first, without distinguishing dose cohorts, to detect drug effects, and second, with dose cohorts as a factor, in order to detect potential dose effects. […] Any sizeable change in lung function will likely require longer treatment and larger group size, which we look forward to implementing in the placebo-controlled phase of the study.

blood neutrophil GSH = experiment: Phase 2 trial: blood neutrophil intracellular GSH; type: in vivo, human; settings: NAC group (n=9), ITT
Excerpt: Summary. Based on the success of the phase I trial, the trial proceeded to phase II. This single-center trial consisted of a 12-week placebo-controlled section followed by a 12-week open label section, with oral NAC 0.9 g, taken three times daily. The statistical plan for the study was designed to assess the safety and efficacy of NAC versus placebo, at 0 week and 12-week timepoints (placebo-controlled section). Of the 24 subjects screened for eligibility, 21 were enrolled and randomized into NAC and placebo groups. One subject asked to be withdrawn from the prior to the 6 week time point because the medication regimen was too onerous. […] Two other subjects also were removed from participation in the study by the principal investigator due to poor adherence to the study protocol. […]
Intention-to-treat analysis of efficacy endpoints. […] The primary efficacy endpoint in this phase 2 study is sputum neutrophil count (based on the quantification of live neutrophils by microscopy, reflecting lung inflammation) and the four secondary efficacy endpoints are: (i) FEV1 (% Pred), reflecting lung function; (ii) blood neutrophil GSH, reflecting systemic redox imbalance; (iii) sputum HNE activity, reflecting lung inflammation, the current best predictor of CF lung disease; and (iv) whole blood GSH, reflecting systemic redox imbalance. […]

sputum neutrophils = experiment: Phase 2 trial: sputum neutrophil count (live neutrophils by microscopy); type: in vivo, human
Excerpt: as §1
Intention-to-treat analysis of efficacy endpoints. Besides the necessary assessment of the safety of high-dose oral NAC in a placebo-controlled setting, this phase 2 trial also was designed to gain a better understanding of treatment efficacy with regards to improving inflammation, redox imbalance and lung function in CF, albeit within the limits inherent to a small study. In particular, the study looked to confirm the positive effects of high-dose oral NAC seen on sputum neutrophil count and HNE activity obtained in phase 1. The primary efficacy endpoint in this phase 2 study is sputum neutrophil count (based on the quantification of live neutrophils by microscopy, reflecting lung inflammation) and the four secondary efficacy endpoints are: (i) FEV1 (% Pred), reflecting lung function; (ii) blood neutrophil GSH, reflecting systemic redox imbalance; (iii) sputum HNE activity, reflecting lung inflammation, the current best predictor of CF lung disease; and (iv) whole blood GSH, reflecting systemic redox imbalance. […]

[9] = more stable than cysteine; cited from earlier work
interleukin-8 (IL-8) = experiment: Phase I trial: sputum interleukin-8 (IL-8) by ELISA; type: in vivo, human; settings: 3 patients excluded (N = 15), 4 weeks
Excerpt: 2. Lung inflammation, as reflected chiefly by (i) sputum counts in total live leukocytes and neutrophils (along with % neutrophils in sputum); (iii) plasma/sputum levels of elastase and interleukin-8 (IL-8) measured by spectrophotometry and ELISA Differences between basal and post-NAC values were studied by matched pair analysis, first, without distinguishing dose cohorts, to detect drug effects, and second, with dose cohorts as a factor, in order to detect potential dose effects.

[10] = administered intravenously in dogs; cited from earlier work
elastase = experiment: Phase I trial: sputum elastase activity by kinetic spectrophotometry; type: in vivo, human; settings: 4 weeks
Excerpt: as §4
(§5) 2. Lung inflammation, as reflected chiefly by (i) sputum counts in total live leukocytes and neutrophils (along with % neutrophils in sputum); (iii) plasma/sputum levels of elastase and interleukin-8 (IL-8) measured by spectrophotometry and ELISA
(§6) Differences between basal and post-NAC values were studied by matched pair analysis, first, without distinguishing dose cohorts, to detect drug effects, and second, with dose cohorts as a factor, in order to detect potential dose effects.

[11] = 600 mg oral NAC per day, at least two exacerbations per year for 2 years; cited from earlier work
[12] = 600 mg three times daily plus prednisone plus azothioprine, one year, vs standard therapy alone; cited from earlier work
blood neutrophils = experiment: Phase I trial: absolute numbers of neutrophils in blood; type: in vivo, human; settings: dose cohort 2 (2.4 g/d), 4 weeks
Excerpt: Indeed, cohort 2 was more severely affected with regards to several surrogate markers of disease prior to treatment (lower FEV1, all infected with P. aeruginosa, lower perceived weight gain).

[13] = test system: sputum leukocytes and neutrophils; experiment: Phase I trial: sputum counts of live leukocytes and neutrophils by microscopy; type: in vivo, human; settings: 4 weeks
Excerpt: as §4, §5, §6

interleukin-8 = experiment: Phase 2 trial: sputum IL-8 protein levels; type: in vivo, human
Excerpt: as §1, §2, §3

[14] = test system: human neutrophil elastase (HNE); experiment: Phase 2 trial: sputum HNE enzymatic activity; type: in vivo
Excerpt: as §1, §2, §3

[15] = NAC group (n=9), ITT, oral 0.9 g three times daily, week 12
[16] = NAC group (n=9), ITT, week 0 baseline
[17] = phase 2, wk 0 vs wk 12, not in placebo group
[18] = All (N = 18), basal vs post-NAC

CC(=O)N[C@@H](CSSC[C@H](NC(C)=O)C(=O)O)C(=O)O [oxidized form of NAC, di-N-acetylcysteine]
Bioactive dose relative to NAC [1]: 10-100 fold

CC(=O)N[C@@H](CS)C(=O)O [NAC, N-acetylcysteine]
Plasma levels of IL-17 (interleukin-17 (IL-17)): decreased
Sputum HNE protein levels (Log10), Value wk 12 [2, 15]: −0.27 ± 0.12 Log10
Sputum HNE protein levels (Log10), Value wk 0 [2, 16]: 0.04 ± 0.13 Log10
Sputum HNE protein levels, change within NAC group [2, 17]: significant decreases; also recorded: significantly decreased
Early mortality in ARDS and ALI [3]: no effect
Subjects with exacerbations of sinus/lung disease [4]: 2/9
Perceived weight gain, change ([5]; 3 patients excluded (N = 15)): Increased
Perceived weight gain, change ([5]; All (N = 18), CF QOL): Increased
Decline in pulmonary function tests (PFTs) ([6]; ITT analysis over the course of the phase 2 trial): no significant decline
Functional expiratory volume in 1s (% Pred), Value wk 12 [6, 15]: 75.6 ± 8.2 % Pred
Functional expiratory volume in 1s (% Pred), Value wk 0 [6, 16]: 73.7 ± 7.6 % Pred
FEV1 (% Pred), effect ([6]; phase 2, 12 weeks): No significant effect; also recorded: failed to detect any significant improvement
Complete blood count and chemistry parameters ([7]; 12-week treatment, marginal changes in red blood cell distribution width and calcium, within normal range): not affected
Flatulence (CF QOL questionnaires) ([7]; NAC group, not in the placebo group, 12 weeks): significant reduction
Liver enzymes ([7]; phase 2, 12 weeks): No change
Tolerability ([7]; phase 2, oral 0.9 g three times daily, 12 weeks): very well tolerated; also recorded: lack of toxicity
Pulmonary Function Testing results (spirometry) [8]: not changed; also recorded: none of the parameters measured by spirometry showed any change
Blood neutrophil intracellular GSH, Value wk 12 (blood neutrophil GSH; oral 0.9 g three times daily, week 12): 4.10 ± 0.10
Blood neutrophil intracellular GSH, Value wk 0 (blood neutrophil GSH; week 0 baseline): 4.04 ± 0.08
Sputum neutrophil count (Log10), Value wk 12 (sputum neutrophils; [15]): 1.24 ± 0.18 Log10
Sputum neutrophil count (Log10), Value wk 0 (sputum neutrophils; [16]): 1.41 ± 0.17 Log10
Sputum neutrophil count, change within NAC group (sputum neutrophils; phase 2, wk 0 vs wk 12, 0.9 g three times daily, not in placebo group): significant decreases; also recorded: significantly decreased
Stability relative to cysteine [9]: about 10 times
IL-8 in sputum, change (interleukin-8 (IL-8)): −25%
Pulmonary oxygen toxicity and ischemic and reperfusion damage [10]: protect
Elastase in sputum, change (elastase; 3 patients excluded (N = 15)): −46%
Elastase in sputum, change (elastase; [18]): −44%
Prevention of deterioration in lung function and exacerbations in COPD [11]: ineffective
Deterioration of vital capacity and DLCO in IPF [12]: slows the deterioration
Decrease in absolute numbers of neutrophils in blood (blood neutrophils): 27%
Live sputum leukocytes, change ([13]; 3 patients excluded (N = 15)): −28%
Live sputum neutrophils, change ([13]; 3 patients excluded (N = 15)): −32%
Neutrophils sputum (%), change ([13]; 3 patients excluded (N = 15)): −9%
Live sputum leukocytes, change [13, 18]: −21%
Live sputum neutrophils, change [13, 18]: −25%
Sputum IL-8 protein levels (Log10), Value wk 12 (interleukin-8; [15]): 1.81 ± 0.18 Log10
Sputum IL-8 protein levels (Log10), Value wk 0 (interleukin-8; [16]): 2.01 ± 0.12 Log10
Sputum IL-8 protein levels, change within NAC group (interleukin-8; [17]): significant decreases; also recorded: significantly decreased
Sputum HNE enzymatic activity (Log10), Value wk 12 [14, 15]: 3.16 ± 0.20 Log10
Sputum HNE enzymatic activity (Log10), Value wk 0 [14, 16]: 3.61 ± 0.15 Log10
Sputum HNE enzymatic activity, change within NAC group [14, 17]: significant decreases; also recorded: significantly decreased
